Measurements as given in US8192717B2, “Composition for diagnosing amyloid-related diseases” (Nagasaki University, priority 2004, dated 2012).
One block for each compound: values may come before it.

What was measured:
Aβ(1-40) aggregates [1] = target: T1, Aβ(1-40) aggregates (Homo sapiens, UniProt P05067); experiment: In vitro binding of [125I]-labelled compounds to Aβ aggregates (filtration, radioactivity on filter); settings: [125I]-labelled compound; radioactivity remaining on filter in presence vs absence of Aβ aggregates
T1 construct: The amyloid β protein (Human, 1-40) [HCl form]; purchased Peptide Institute, Inc
Description: (§1) Aβ aggregates was dissolved in a buffer (pH 7.4) that contained 10 mM sodium phosphate and 1 mM EDTA, resulting in a concentration of 0.5 mg/ml. Thereafter, the obtained solution was incubated at 37° C. for 36 to 42 hours. A binding experiment was carried out using 12×75 mm borosilicate glass tubes. […] The obtained mixture was left at room temperature for 3 hours. Non-specific bond was calculated using nonradioactive compound 11 (1 μM). […] The radioactivity of a substance remaining in the filter used in filtration was measured with a γ counter. With regard to [^125I] compound 11, the Kd value thereof was calculated by the Scatchard analysis. In addition, using [^125I] compound 11 as a radioactive ligand, an inhibition experiment was carried out by the following method using the Aβ(1-40) aggregates and the Aβ(1-42) aggregates. […] The obtained mixture was left at room temperature for 3 hours. Non-specific bond was calculated using nonradioactive compound 11 (1 μM). The 50% inhibitory concentration was calculated using GraphPad Prism (GraphPad Software), and the inhibition constant (Ki value) was calculated according to the formula of Cheng-Prusoff, Ki=IC50/(1+[L]/Kd). In this formula, [L] represents the concentration of [^125I] compound 11, and Kd represents the dissociation constant of [^125I] compound 11 to the Aβ(1-40) aggregates and the Aβ(1-42) aggregates.

[2] = Radioactivity distribution in mouse body after intravenous administration of radioiodine labeled forms; settings: for Distribution of radioactivity, Blood / Distribution of radioactivity, Brain / Distribution of radioactivity, Heart / Distribution of radioactivity, Intestine / Distribution of radioactivity, Kidney / Distribution of radioactivity, Liver / Distribution of radioactivity, Spleen: mouse, intravenous administration, mean (SD) of 3 to 5 mice
Description: Thereafter, 100 μl (0.5 to 1 μCi) of each labeled form was intravenously administered to each group consisting of three to five 5-week-old ddY male mice (25 to 30 g). 2, 10, 30, and 60 minutes after the intravenous administration, such mice were decapitated, and blood was collected. Thereafter, organs were excised, and the weight and radioactivity thereof were then measured.

Aβ(1-40) aggregates [3] = target: T1, Aβ(1-40) aggregates; experiment: Inhibition experiment using [125I] compound 11 as radioactive ligand, Aβ(1-40) aggregates; assay type: binding; settings: radioligand [125I] compound 11; Cheng-Prusoff; read-out: Inhibition constant (Ki, nM) Aβ(1-40)
Description: as §1

Aβ(1-42) aggregates = target: T2, Aβ(1-42) aggregates (Homo sapiens, UniProt P05067); experiment: Inhibition experiment using [125I] compound 11 as radioactive ligand, Aβ(1-42) aggregates; assay type: binding; settings: radioligand [125I] compound 11; Cheng-Prusoff; read-out: Inhibition constant (Ki, nM) Aβ(1-42)
T2 construct: the amyloid β protein (Human, 1-42) [TFA form]; purchased Peptide Institute, Inc
Description: as §1

[4] = system: senile plaque amyloid, cerebrovascular amyloid and neurofibrillary degeneration in brain tissues of patient with Alzheimer's disease; experiment: Binding experiment using brain tissues of patient with Alzheimer's disease (fluorescence microscopy of sections); parameters: species or system human; settings: 100 nM, room temperature, 10 minutes; temporal lobe sections
Description: Tissues at the temporal lobe site of the brain of a patient with Alzheimer's disease were fixed with formalin, and were then embedded in paraffin. A section with a thickness of 5 μm was prepared from the paraffin block, and the paraffin was then removed by an ordinary treatment with xylene and ethanol (Lippa, C. F., Nee, L. E., Mori, H & George-Hyslop, P. (1998) The Lancet 352:1117-1118). As the final stage, neutralization was carried out with a phosphate buffer. Thereafter, compounds 10, 11, 19, and 20 were reacted in a concentration of 100 nM at room temperature for 10 minutes. Thereafter, the reaction product was washed with a phosphate buffer three times, and then with 50% ethanol three time, so as to terminate the reaction. Thereafter, the resultant was dehydrated by treatments with alcohol and xylene, followed by embedding with Entellan(R) new. The bond of the above compound was confirmed by image observation with a CCD camera (M-3204C) included with a fluorescence microscope (Olympus BX50).

[5] = normal mice, intravenous, [125I]-labelled form

T1 sequence (P05067 672-711 limits assumed): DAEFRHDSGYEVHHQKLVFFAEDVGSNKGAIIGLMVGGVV
T2 sequence (P05067 672-713 limits assumed): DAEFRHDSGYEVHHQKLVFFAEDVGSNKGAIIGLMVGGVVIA

SMILES: Nc1ccc(C=Cc2cc(=O)c3cc(I)ccc3o2)cc1 [compound 46, 6-iodo-4′-aminostyrylchromone]
bindability to the Aβ aggregates (Aβ(1-40) aggregates [1]): high binding affinity
ability to transfer to the brain [2, 5]: 4.9 % ID/g
washing out / disappearance of radioactivity from the brain [2, 5]: rapid disappearance of radioactivity

SMILES: COc1ccc(-c2cc(=O)c3cc(I)ccc3o2)cc1 [compound 19, 6-iodo-4′-methoxyflavone]
bindability to the Aβ aggregates (Aβ(1-40) aggregates [1]): high bindability
Ki (Aβ(1-40) aggregates [3]): 29 ± 3.2 nM
Ki (Aβ(1-42) aggregates): 38.3 ± 8.1 nM
rate of disappearance from the brain (rank among flavone derivatives) [2, 5]: fastest
recognition of and binding to amyloid plaque, senile plaque having a neurodegenerative projection, cerebrovascular amyloid and neurofibrillary degeneration [4]: recognize amyloid plaque, senile plaque having a neurodegenerative projection, cerebrovascular amyloid and neurofibrillary degeneration, and bind thereto

SMILES: CN(C)c1ccc(C=Cc2cc(=O)c3cc(I)ccc3o2)cc1 [compound 48, 6-iodo-4′-dimethylaminostyrylchromone]
bindability to the Aβ aggregates (Aβ(1-40) aggregates [1]): high binding affinity
ability to transfer to the brain (in words) [2, 5]: low
radioactivity retention in the blood [2, 5]: high radioactivity retention ability in the blood

SMILES: COc1cc(/C=C/C(=O)c2cccc(I)c2)ccc1O [compound 31, (E)-3-(4-hydroxy-3-methoxyphenyl)-1-(3-iodophenyl)propan-2-en-1-one]
bindability to the Aβ aggregates (Aβ(1-40) aggregates [1]): high binding affinity
ability to transfer to the brain (in words) [2, 5]: transfers to the brain
washing out / disappearance of radioactivity from the brain [2, 5]: washed out rapidly

Further lines, with some results ahead:

bindability to the Aβ aggregates (Aβ(1-40) aggregates [1]): high binding affinity
ability to transfer to the brain [2, 5]: 3.0 % ID/g
washing out / disappearance of radioactivity from the brain [2, 5]: rapid disappearance of radioactivity
SMILES: CNc1ccc(C=Cc2cc(=O)c3cc(I)ccc3o2)cc1 [compound 47, 6-iodo-4′-methylaminostyrylchromone]

bindability to the Aβ aggregates (Aβ(1-40) aggregates [1]): high bindability
Ki (Aβ(1-40) aggregates [3]): 22.6 ± 3.4 nM
Ki (Aβ(1-42) aggregates): 30 ± 3.4 nM
SMILES: CNc1ccc(-c2cc(=O)c3cc(I)ccc3o2)cc1 [compound 10, 6-iodo-4′-methylaminoflavone]
rate of disappearance from the brain (rank among flavone derivatives) [2, 5]: almost the same as that of [^125I] compound 11
recognition of and binding to amyloid plaque, senile plaque having a neurodegenerative projection, cerebrovascular amyloid and neurofibrillary degeneration [4]: recognize amyloid plaque, senile plaque having a neurodegenerative projection, cerebrovascular amyloid and neurofibrillary degeneration, and bind thereto

Distribution of radioactivity, Blood ([2]; 2 min after administration): 2.77 (0.43) % ID/g
Distribution of radioactivity, Blood ([2]; 10 min after administration): 1.58 (0.18) % ID/g
Distribution of radioactivity, Blood ([2]; 30 min after administration): 0.66 (0.03) % ID/g
Distribution of radioactivity, Blood ([2]; 60 min after administration): 0.20 (0.02) % ID/g
Distribution of radioactivity, Brain ([2]; 2 min after administration): 3.31 (0.32) % ID/g
Distribution of radioactivity, Brain ([2]; 10 min after administration): 1.90 (0.07) % ID/g
Distribution of radioactivity, Brain ([2]; 30 min after administration): 0.52 (0.03) % ID/g
Distribution of radioactivity, Brain ([2]; 60 min after administration): 0.08 (0.02) % ID/g
Distribution of radioactivity, Heart ([2]; 2 min after administration): 5.51 (0.71) % ID/g
Distribution of radioactivity, Heart ([2]; 10 min after administration): 1.60 (0.18) % ID/g
Distribution of radioactivity, Heart ([2]; 30 min after administration): 0.53 (0.04) % ID/g
Distribution of radioactivity, Heart ([2]; 60 min after administration): 0.12 (0.02) % ID/g
Distribution of radioactivity, Intestine ([2]; 2 min after administration): 3.12 (0.37) % ID/g
Distribution of radioactivity, Intestine ([2]; 10 min after administration): 11.26 (0.63) % ID/g
Distribution of radioactivity, Intestine ([2]; 30 min after administration): 22.01 (1.34) % ID/g
Distribution of radioactivity, Intestine ([2]; 60 min after administration): 27.28 (0.48) % ID/g
Distribution of radioactivity, Kidney ([2]; 2 min after administration): 14.79 (2.59) % ID/g
Distribution of radioactivity, Kidney ([2]; 10 min after administration): 15.11 (2.00) % ID/g
Distribution of radioactivity, Kidney ([2]; 30 min after administration): 6.45 (0.84) % ID/g
Distribution of radioactivity, Kidney ([2]; 60 min after administration): 1.66 (0.62) % ID/g
Distribution of radioactivity, Liver ([2]; 2 min after administration): 9.77 (1.89) % ID/g
Distribution of radioactivity, Liver ([2]; 10 min after administration): 8.24 (0.50) % ID/g
Distribution of radioactivity, Liver ([2]; 30 min after administration): 6.80 (0.86) % ID/g
Distribution of radioactivity, Liver ([2]; 60 min after administration): 4.78 (1.09) % ID/g
Distribution of radioactivity, Spleen ([2]; 2 min after administration): 3.92 (1.18) % ID/g
Distribution of radioactivity, Spleen ([2]; 10 min after administration): 1.55 (0.15) % ID/g
Distribution of radioactivity, Spleen ([2]; 30 min after administration): 0.56 (0.13) % ID/g
Distribution of radioactivity, Spleen ([2]; 60 min after administration): 0.17 (0.06) % ID/g
SMILES: O=c1cc(-c2ccc(O)cc2)oc2ccc([125I])cc12 [[125I]Compound 20]

bindability to the Aβ aggregates (Aβ(1-40) aggregates [1]): high binding affinity
SMILES: CN(C)c1ccc(/C=C/C(=O)c2ccc(I)cc2)cc1 [compound 36, (E)-3-(4-(dimethylamino)phenyl)-1-(4-iodophenyl)propan-2-en-1-one]

Distribution of radioactivity, Blood ([2]; 2 min after administration): 3.21 (0.38) % ID/g
Distribution of radioactivity, Blood ([2]; 10 min after administration): 2.44 (0.082) % ID/g
Distribution of radioactivity, Blood ([2]; 30 min after administration): 2.19 (0.29) % ID/g
Distribution of radioactivity, Blood ([2]; 60 min after administration): 1.79 (0.23) % ID/g
Distribution of radioactivity, Brain ([2]; 2 min after administration): 2.84 (0.35) % ID/g
Distribution of radioactivity, Brain ([2]; 10 min after administration): 2.96 (0.25) % ID/g
Distribution of radioactivity, Brain ([2]; 30 min after administration): 1.86 (0.30) % ID/g
Distribution of radioactivity, Brain ([2]; 60 min after administration): 0.99 (0.09) % ID/g
Distribution of radioactivity, Heart ([2]; 2 min after administration): 6.92 (1.41) % ID/g
Distribution of radioactivity, Heart ([2]; 10 min after administration): 3.31 (0.69) % ID/g
Distribution of radioactivity, Heart ([2]; 30 min after administration): 2.09 (0.39) % ID/g
Distribution of radioactivity, Heart ([2]; 60 min after administration): 1.47 (0.27) % ID/g
Distribution of radioactivity, Intestine ([2]; 2 min after administration): 2.59 (0.38) % ID/g
Distribution of radioactivity, Intestine ([2]; 10 min after administration): 8.55 (1.21) % ID/g
Distribution of radioactivity, Intestine ([2]; 30 min after administration): 16.72 (2.58) % ID/g
Distribution of radioactivity, Intestine ([2]; 60 min after administration): 19.16 (2.63) % ID/g
Distribution of radioactivity, Kidney ([2]; 2 min after administration): 10.41 (1.33) % ID/g
Distribution of radioactivity, Kidney ([2]; 10 min after administration): 7.05 (0.56) % ID/g
Distribution of radioactivity, Kidney ([2]; 30 min after administration): 5.48 (0.97) % ID/g
Distribution of radioactivity, Kidney ([2]; 60 min after administration): 3.52 (1.36) % ID/g
Distribution of radioactivity, Liver ([2]; 2 min after administration): 14.55 (2.64) % ID/g
Distribution of radioactivity, Liver ([2]; 10 min after administration): 14.41 (2.52) % ID/g
Distribution of radioactivity, Liver ([2]; 30 min after administration): 11.13 (1.63) % ID/g
Distribution of radioactivity, Liver ([2]; 60 min after administration): 7.82 (0.94) % ID/g
Distribution of radioactivity, Spleen ([2]; 2 min after administration): 3.88 (0.74) % ID/g
Distribution of radioactivity, Spleen ([2]; 10 min after administration): 4.42 (1.05) % ID/g
Distribution of radioactivity, Spleen ([2]; 30 min after administration): 2.66 (0.47) % ID/g
Distribution of radioactivity, Spleen ([2]; 60 min after administration): 1.51 (0.19) % ID/g
SMILES: CNc1ccc(C=Cc2cc(=O)c3cc([125I])ccc3o2)cc1 [[125I]Compound 47]
